Data from patent US20240215577A1, “FUNGICIDAL PYRIDONES” (FMC Corporation, priority 2021, published 2024).

Legend:
Type in all cases: in vivo
Botrytis cinerea = assay: Test E: tomato Botrytis, preventive spray on tomato seedlings; conditions: 100 = 100% disease control, 0 = no control; for Test E disease control rating: 50 ppm
Excerpt: (§1) General protocol for preparing test suspensions for Tests A-F: the test compounds were first dissolved in acetone in an amount equal to 3% of the final volume and then suspended at the desired concentration (in ppm) in acetone and purified water (50/50 mix by volume) containing 250 ppm of the surfactant PEG400 (polyhydric alcohol esters). The resulting test suspensions were then used in Tests A-F.
(§2) The test suspension was sprayed to the point of run-off on tomato seedlings. The following day the seedlings were inoculated with a spore suspension of Botrytis cinerea (the causal agent of tomato Botrytis) and incubated in a saturated atmosphere at 20° C. for 48 h, and then moved to a growth chamber at 24° C. for 3 days, after which time visual disease ratings were made.
(§3) A rating of 100 indicates 100% disease control and a rating of 0 indicates no disease control (relative to the controls). A dash (-) indicates the compound was not tested.

Phakopsora pachyrhizi = assay: Test D: Asian soybean rust, preventive spray on soybean seedlings; conditions: 100 = 100% disease control, 0 = no control; for Test D disease control rating: 50 ppm
Excerpt: as §1
(§4) The test solution was sprayed to the point of run-off on soybean seedlings. The following day the seedlings were inoculated with a spore suspension of Phakopsora pachyrhizi (the causal agent of Asian soybean rust) and incubated in a saturated atmosphere at 22° C. for 24 h and then moved to a growth chamber at 22° C. for 8 days, after which time visual disease ratings were made.
as §3

[1] = system: Puccinia recondita f. sp. tritici; assay: Test B: wheat leaf rust, preventive spray on wheat seedlings; conditions: 100 = 100% disease control, 0 = no control; for Test B disease control rating: 50 ppm
Excerpt: as §1
as §4, with “on wheat” for “on soybean”, “of Puccinia recondita f. sp. tritici” for “of Phakopsora pachyrhizi”, “of wheat leaf” for “of Asian soybean”, “at 20°” for “at 22°”, “24 h,” for “24 h”, “for 7” for “for 8”
as §3

[2] = system: Blumeria graminis f. sp. tritici; assay: Test C: wheat powdery mildew, preventive spray on wheat seedlings; conditions: 100 = 100% disease control, 0 = no control; for Test C disease control rating: 50 ppm
Excerpt: as §1
The test suspension was sprayed to the point of run-off on wheat seedlings. The following day the seedlings were inoculated with a spore dust of Blumeria graminis f. sp. tritici, (also known as Eysiphe graminis f. sp. tritici, the causal agent of wheat powdery mildew) and incubated in a growth chamber at 20° C. for 8 days, after which time visual disease ratings were made.
as §3

Alternaria solani = assay: Test F: tomato early blight, preventive spray on tomato seedlings; conditions: 100 = 100% disease control, 0 = no control; for Test F disease control rating: 50 ppm
Excerpt: as §1
as §2, with “Alternaria solani” for “Botrytis cinerea”, “early blight)” for “Botrytis)”, “27°” for “20°”, “20°” for “24°”
as §3

Zymoseptoria tritici = assay: Test A: wheat leaf blotch, preventive spray on wheat seedlings; conditions: 100 = 100% disease control, 0 = no control; for Test A disease control rating: 50 ppm
Excerpt: as §1
The test solution was sprayed to the point of run-off on wheat seedlings. The following day the seedlings were inoculated with a spore suspension of Zymoseptoria tritici (the causal agent of wheat leaf blotch) and incubated in a saturated atmosphere at 24° C. for 48 h, and then moved to a growth chamber at 20° C. for 17 days, after which time disease ratings were made.
as §3

| SMILES | Test E disease control rating (Botrytis cinerea) | Test D disease control rating (Phakopsora pachyrhizi) | Test B disease control rating [1] | Test C disease control rating [2] | Test F disease control rating (Alternaria solani) | Test A disease control rating (Zymoseptoria tritici) | pest or weed control at 250 ppm (Botrytis cinerea; Botrytis cinerea, 250 ppm, read-out: Test E disease control rating) | pest or weed control at 250 ppm (Phakopsora pachyrhizi; Phakopsora pachyrhizi, 216 h, 250 ppm, read-out: Test D disease control rating) | pest or weed control at 250 ppm ([1]; Puccinia recondita, 250 ppm, read-out: Test B disease control rating) | pest or weed control at 250 ppm ([2]; Blumeria graminis, 250 ppm, read-out: Test C disease control rating) | pest or weed control at 250 ppm (Alternaria solani; Alternaria solani, 250 ppm, read-out: Test F disease control rating) | pest or weed control at 250 ppm (Zymoseptoria tritici; Zymoseptoria tritici, 250 ppm, read-out: Test A disease control rating) |
| --- | --- | --- | --- | --- | --- | --- | --- | --- | --- | --- | --- | --- |
| CCc1c(-c2ccc(F)cc2Cl)c(-c2cc(OC)ccc2Cl)cn(C)c1=O [Compound 47] | 91% | 51% | 100% | 99% | 99% | 81% |  |  |  |  |  |  |
| Cn1cc(-c2ccccc2Cl)c(-c2ccc(F)cc2F)c(Cl)c1=O [Compound 48] | 96% | 77% | 99% | 72% | 96% | 99% |  |  |  |  |  |  |
| COc1ccc(F)c(-c2cn(C)c(=O)c(Cl)c2-c2ccc(F)cc2F)c1 [Compound 49] | 96% | 73% | 100% | 0% | 100% | 100% |  |  |  |  |  |  |
| CCOc1ccc(Cl)c(-c2cn(C)c(=O)c(Cl)c2-c2ccc(F)cc2F)c1 [Compound 52] | 99% | 81% | 100% | 91% | 99% | 100% |  |  |  |  |  |  |
| COc1cc(OC)cc(-c2cn(C)c(=O)cc2-c2ccc(F)cc2Cl)c1 [Compound 53, 4-(2-chloro-4-fluorophenyl)-5-(3,5-dimethoxyphenyl)-1-methyl-2(1H)-pyridinone] |  |  |  |  |  |  | 99% | 59% | 97% | 56% | 0% | 100% |
| Cc1c(-c2cn(C)c(=O)c(Cl)c2-c2ccc(F)cc2Cl)cccc1[N+](=O)[O-] [Compound 54] | 92% | 75% | 99% | 0% | 26% | 100% |  |  |  |  |  |  |
| Cn1cc(-c2sccc2Cl)c(-c2ccc(F)cc2Cl)c(Cl)c1=O [Compound 55] | 97% | 0% | 90% | 0% | 0% | 96% |  |  |  |  |  |  |
| COc1ccc(Cl)c(-c2cn(C)c(=O)c(Cl)c2-c2ccc(C#N)cc2Cl)c1 [Compound 56] | 96% | 97% | 100% | 98% | 99% | 100% |  |  |  |  |  |  |
| COc1ccc(Cl)c(-c2cn(C)c(=O)c(Cl)c2-c2ccccc2C(F)(F)F)c1 [Compound 57] | 90% | 44% | 99% | 64% | 0% | 98% |  |  |  |  |  |  |
| COc1ccc(Cl)c(-c2cn(C)c(=O)cc2-c2ccc(Br)cc2Cl)c1 [Compound 58] | 90% | 0% | 55% | 0% | 0% | 98% |  |  |  |  |  |  |
| COc1ccc(Cl)c(-c2cn(C)c(=O)cc2-c2ccc(C#N)cc2Cl)c1 [Compound 59] | 95% | 0% | 92% | 0% | 0% | 99% |  |  |  |  |  |  |
| Cc1cc(F)ncc1-c1cn(C)c(=O)c(Cl)c1-c1ccc(F)cc1Cl [Compound 60] | 97% | 65% | 95% | 73% | 40% | 99% |  |  |  |  |  |  |
| COc1ccc(Cl)c(-c2cn(C)c(=O)c(Cl)c2-c2ccccc2F)c1 [Compound 61] | 98% | 94% | 100% | 89% | 100% | 100% |  |  |  |  |  |  |
| COc1ccc(Cl)c(-c2cn(C)c(=O)cc2-c2ccccc2Br)c1 [Compound 62] | 98% | 0% | 74% | 0% | 0% | 37% |  |  |  |  |  |  |
| Cc1ccsc1-c1cn(C)c(=O)c(Cl)c1-c1ccc(F)cc1Cl [Compound 63] | 88% | 0% | 80% | 0% | 0% | 84% |  |  |  |  |  |  |
| COc1ccc(Cl)c(-c2cn(C)c(=O)c(Cl)c2-c2cccc(F)c2F)c1 [Compound 64] | 96% | 87% | 100% | 87% | 100% | 98% |  |  |  |  |  |  |
| COc1ccc(Cl)c(-c2cn(C)c(=O)cc2-c2cccc(F)c2F)c1 [Compound 65] | 96% | 0% | 95% | 0% | 0% | 8% |  |  |  |  |  |  |
| Cn1cc(-c2cccc([N+](=O)[O-])c2)c(-c2ccc(F)cc2Cl)c(Cl)c1=O [Compound 66] | 79% | 0% | 80% | 0% | 0% | 42% |  |  |  |  |  |  |
| COc1ccc(-c2cc(=O)n(C)cc2-c2cc(OC)ccc2Cl)c(Cl)c1 [Compound 68] | 88% | 0% | 98% | 0% | 73% | 61% |  |  |  |  |  |  |
| COc1ccc(-c2c(-c3cc(OC)ccc3Cl)cn(C)c(=O)c2Cl)c(Cl)c1 [Compound 69] | 98% | 79% | 100% | 99% | 100% | 100% |  |  |  |  |  |  |
| COc1ccc(Cl)c(-c2cn(C)c(=O)cc2-c2ccccc2C(F)(F)F)c1 [Compound 70] | 93% | 0% | 68% | 83% | 0% | 50% |  |  |  |  |  |  |
| COc1ccc(Cl)c(-c2cn(C)c(=O)c(Cl)c2-c2ccc(F)cc2Br)c1 [Compound 71] | 96% | 73% | 100% | 100% | 99% | 100% |  |  |  |  |  |  |
| CCn1cc(-c2cc(OC)ccc2Cl)c(-c2ccc(F)cc2Cl)c(Cl)c1=O [Compound 75] | 98% | 0% | 97% | 0% | 0% | 97% |  |  |  |  |  |  |
| CCCn1cc(-c2cc(OC)ccc2Cl)c(-c2ccc(F)cc2Cl)c(Cl)c1=O [Compound 76] | 96% | 0% | 55% | 0% | 0% | 63% |  |  |  |  |  |  |
